US6342492B1, “Anti-viral triaza compounds and compositions” (The Research Foundation of State University of New York, priority 1995, dated 2002)
Where two headings read alike, the source gives them in different places.

Columns and labels:
Epstein Barr virus (EBV) = experiment: Antiviral screening against Epstein Barr virus; assay type: cell-based; details: human gammaherpesvirus 4; read-out: anti-EBV activity EC50
Human Cytomegalovirus = experiment: Semi-automated CPE-inhibition assay for HCMV in human foreskin fibroblast cells; assay type: cell-based; details: Human betaherpesvirus 5
Protocol: (§1) Additional antiviral testing was carried out to test the efficacy of compounds of the invention against human cytomegalovirus (HCMV) and another herpesvirus, Variecella Zoster Virus(VZV). The compounds tested were compound (1), the HCl salt of compound (1), Compounds 211, 43, 213 and 214.

[1] = Inhibition of cell proliferation (cytotoxicity) in herpesvirus screening; assay type: cell-based, human; details: human, human foreskin fibroblast cells
Varicella Zoster Virus = experiment: Plaque reduction assay for VZV (Ellen strain); assay type: cell-based; details: Human alphaherpesvirus 3
Protocol: as §1

SMILES: C=C1CN(S(=O)(=O)c2ccc(C)cc2)CCCN(C(=O)OCC)CCCN(S(=O)(=O)c2ccc(C)cc2)C1 [Compound 213, 9-(Ethyloxycarbonyl)-3-methylene-1,5-ditosyl-1,5,9-triazacyclododecane]
- EC50 (Epstein Barr virus (EBV)): 6.7 µM
- EC50 (Human Cytomegalovirus): 3 µM
- CC50 ([1]; inhibit cell proliferation by 50%, HCMV CPE-inhibition screen, read-out: Human Cytomegalovirus CC50): 167 µM
- CC50 ([1]; inhibit cell proliferation by 50%, VZV screen, read-out: Varicella Zoster Virus CC50): > 180 µM
- CC50 ([1]; with anti-EBV screen, read-out: CC50): > 180 µM
- EC50 (Varicella Zoster Virus): 170 µM
